Measured values as given in patent US8679461B2, “Use of hesperetin for enhancing the sweet taste” (Symrise AG, priority 2005, dated 2014).
“And” between values parts separate entries of the source, which are not always exact repeats. Identical values can stand only once.

What was measured:
[1] = tested on: sweet impression of a 5% by weight sucrose-containing solution; test: Enhancing the sweet impression of a sugar solution, rating by a group of experts (Application Example 1); assay type: in vivo; settings: for total number of tasters against the number of tasters who found the test solution sweeter / % Enhancement of the sweet impression: 5% sucrose + 100 ppm substance against 5% sucrose solution; for % Enhancement of the sweet impression: calculated from mean ratings; for Sweet impression (1-10) b) with: 5% sucrose + 100 ppm substance, rating 0 [not sweet] to 10 [extremely sweet], mean ± standard deviation
Procedure: In order to quantify the enhancement of a sweet impression owing to the addition of hesperetin, the respective sweetness of a 5% by weight sucrose-containing solution and of samples which contained 5% sucrose and 100 ppm hesperetin (source: Sigma-Aldrich, Order.-No. H 4125, CA-No. 41001-90-5) or a quantity of comparative hydroxyflavanones naringenin, eriodictyol, homoeriodictyol or eriodictyol-7-methylether (cf. US 2002 188,019) was determined by a group of experts (rating0 [not sweet] to 10 [extremely sweet]). Evaluation took place as a calculation of the enhancement (in %) of the sweet impression from the mean values of the assessments of the sucrose solution or the sucrose and compound 2-containing solution.

[2] = tested on: sweet taste; settings: concentration of 200 ppm; cited from earlier work
[3] = tested on: sweet impression of sucrose-containing solutions; test: Sweet impression of a sugar-reduced test solution, rating by a group of experts (Application Example 2); assay type: in vivo
Procedure: In order to quantify the retention of a sweet impression when replacing a sucrose content with a small quantity of hesperetin, the respective sweetness of (a) a 6% by weight sucrose-containing solution against a 5% by weight sucrose-containing solution and (b) a 6% by weight sucrose-containing solution against a solution which contained 5% sucrose and a quantity of hesperetin (source: Sigma-Aldrich, Order No. H 4125, CA-No. 41001-90-5) was determined by a group of experts (rating 0 [not sweet] to 10 [extremely sweet]). Evaluation took place as a calculation of the enhancement (in %) of the sweet impression from the mean values of the assessments of the 6% or 5% sucrose-containing solution or 5% sucrose and 100 ppm hesperetin-containing solution.

Row | SMILES | total number of tasters against the number of tasters who found the test solution sweeter [1] | % Enhancement of the sweet impression [1] | Sweet impression (1-10) b) with [1] | other results
1 | O=C1C[C@@H](c2ccc(O)cc2)Oc2cc(O)cc(O)c21 [Naringenin] | 19/12 | +7.5% | 6.0 ± 1.7 | 
2 | COc1cc(O)c2c(c1)OC(c1ccc(O)c(O)c1)CC2=O (stereo not drawn) [Eriodictyol-7-methylether] | 18/13 | +15.9% | 5.7 ± 1.9 | 
3 | O=C1C[C@@H](c2ccc(O)c(O)c2)Oc2cc(O)cc(O)c21 [Eriodictyol] | 12/2 | −16.7% | 5.4 ± 1.2 | 
4 | COc1ccc(C2CC(=O)c3c(O)cc(O)cc3O2)cc1O (stereo not drawn) [Hesperetin, 4′-methoxy-3′,5,7-trihydroxyflavanone] | 16/14 | +41% | 7.1 ± 2.4 | inherent taste (in words) [2]: very weak sweet taste; sweet-enhancing effect (in words) ([1]; in contrast to naringenin, homoeriodictyol, eriodictyol and eriodictyol-7-methylether, cf. Example 1): clear and significant sweet-enhancing effect; total number of tasters against the number of tasters who found the test solution sweeter ([3]; test (b): 5% sucrose + 100 ppm hesperetin against 6% sucrose): 15/12; % Enhancement of the sweet impression ([3]; test (b): 5% sucrose + 100 ppm hesperetin against 6% sucrose solution): +21%; Sweet impression (1-10) 5% sucrose + 100 ppm hesperetin ([3]; test (b), mean ± standard deviation): 7.9 ± 1.5
5 | COc1cc([C@@H]2CC(=O)c3c(O)cc(O)cc3O2)ccc1O [Homoeriodictyol] | 19/13 | +6.4% | 6.1 ± 1.5 | 
6 | OC[C@H]1O[C@@](CO)(O[C@H]2O[C@H](CO)[C@@H](O)[C@H](O)[C@H]2O)[C@@H](O)[C@@H]1O [sucrose] |  |  |  | Sweet impression (1-10) 5% sucrose ([3]; 5% by weight sucrose solution, test (a), mean ± standard deviation): 5.0 ± 1.6; Sweet impression (1-10) 6% sucrose ([3]; 6% by weight sucrose solution, reference in tests (a) and (b), mean ± standard deviation): 6.5 ± 1.5 and 6.9 ± 1.6; total number of tasters against the number of tasters who found the test solution sweeter ([3]; test (a): 5% sucrose against 6% sucrose): 15/0; % Enhancement of the sweet impression ([3]; test (a): 5% sucrose solution against 6% sucrose solution): −30%
